In US9637471B2, “Hydroxyindalpine derivatives and their medical use” (Technische Universitat Munchen, priority 2013, dated 2017):

Experiments:
[1] = tested on: circular muscle strips from the guinea pig stomach; assay: Nerve mediated muscle responses to electrical field stimulation (EFS) in circular muscle strips, organ bath; assay type: cell-based; conditions: 10 μM in organ bath, EFS after 20 min
Experimental: The effects of 5-BOIP and homo-5-BOIP were tested in tissue preparations from the guinea pig stomach. After sacrificing the guinea pigs, the stomach was removed and immediately placed in ice-cold oxygenated Krebs solution. The stomach was opened along the greater curvature, thoroughly washed and pinned mucosal side up in Sylgard-coated Petri dishes. The mucosa was then carefully removed. Muscle strips (1.5 cm^2) were cut parallel to the circular muscle and mounted in 25 ml organ baths where they were maintained in oxygenated Krebs solution at 37° C. One edge of each muscle strip was attached to an isometric tension transducer (PowerLab, AD Instruments, Spechbach, Germany).
After mounting in the organ baths, tissues were equilibrated with a preload set at 15 mN for 45 min. Then, electrical field stimulations (EFS) were performed (constant current, 100 mA, pulse frequency 10 Hz, pulse width of 0.5 ms, 10 s). With the chosen parameters for the EFS, only the neuronal tissue in the preparation was stimulated without having a direct effect on the smooth muscle. […]
After reaching stable responses to the EFS, 5-BOIP and homo-5-BOIP were added to the organ baths at a final concentration of 10 μM. […] The responses to the EFS under control conditions and in the presence of 5-BOIP or homo-5-BOIP were analyzed later.

5-HT1P receptor = assay: Neuronal tissue assay: voltage-sensitive dye neuroimaging of human submucous plexus preparations; assay type: cell-based
Experimental: The effect of 5-BOIP was tested on freshly dissected submucous plexus preparations from surgical resections of human intestine. Samples were taken from macroscopically unaffected areas. Procedures were approved by the ethics committees of the Technical University Munich (1748/07 and 2595/09). Segments were dissected in ice cold Krebs solution to obtain mucosa/submucosa preparations containing the inner submucous plexus preparations for the imaging experiments.
In order to image the activity of enteric neurons using voltage sensitive dyes, the human submucous plexus preparations were placed into a recording chamber which was continuously perfused at 37° C. with oxygenated Krebs solution containing 117 mM NaCl, 4.7 mM KCl, 1.2 mM MgCl2, 1.2 mM NaH2PO4, 20 mM NaHCO3, 2.5 mM CaCl2, 11 mM glucose (pH 7.4). The neuroimaging set-up allowed to monitor membrane potential changes and changes in intracellular Ca^2+ [Ca]i transients in all cells of a given ganglion. To study membrane potential changes, individual ganglia were stained with the voltage-sensitive dye Di-8-ANEPPS (20 μM; Molecular Probes, Eugene, Oreg., USA) via intraganglionic application through a microejection pipette.
The imaging experiments were conducted on an inverted microscope (Zeiss Axio Observer.A1; Munich, Germany) equipped with the NeuroCCD system, consisting of a fast CCD camera (80×80 pixels) and the Neuroplex software for data acquisition and analysis (RedShirtImaging, Decatur, Ga., USA). To detect Di-8-ANEPPS a modified Cy3 filterset (545±15 nm excitation, 565 nm dichroic mirror, 580 nm barrier; Ahf Analysentechnik, Tübingen, Germany) was used. A green LED (LE T S2W, Osram, Munich, Germany) was used to excite Di-8-ANEPPS. Visualization of the ganglia and recording of signals were done with a ×100 or ×40 objective (NA=1.35, Olympus, Hamburg, Germany). The imaging set-up allowed to measure relative changes in the fluorescence (ΔF/F), which is for Di-8-ANEPPS linearly related to changes in the membrane potential. Frame rate to detect action potentials was 1 kHz. The overlay of signals and ganglion images allowed the analysis of the responses of individual cells.
5-BOIP was prepared at a stock solution of 100 mM. For controlled local application fine glass capillaries were filled with 50 μM 5-BOIP and positioned just above a ganglion. 5-BOIP was microejected for 400 ms via pressure pulse onto the ganglion. […] Since G protein coupled receptor activation takes several seconds, the recordings were started after a period of 2 s. In preliminary experiments it was verified that there was no immediate effect of 5-BOIP that would begin with the ejection application or directly thereafter.
The specificity of 5-BOIP effects was tested against the 5-HT1 antagonist 5-hydroxytryptophan dipeptide (5-HTP-DP). […]

[2] = Retention of activity after storage (chemical stability); assay type: physicochemical; conditions: storage for 15 months as a solid at 4° C. or in solution frozen at −20° C.
mouse isolated colon = conditions: cited from earlier work

Structure (SMILES): c1ccc(COc2ccc3[nH]cc(CCCC4CCNCC4)c3c2)cc1 [homo-5-BOIP, 5-(benzyloxy)-3-(3-[piperidin-4-yl]propyl)-1H-indole]
- effect on the "on contraction" in response to the EFS [1]: clearly reduced

Structure (SMILES): c1ccc(COc2ccc3[nH]cc(CCC4CCNCC4)c3c2)cc1 [5-BOIP, 5-(benzyloxy)-3-(2-(piperidin-4-yl)ethyl)-1H-indole]
- action potential (spike) frequency (5-HT1P receptor; 5-BOIP alone, 50 μM in capillary microejected 400 ms onto ganglion, median (10%/90%)): 1.6 (1.0/2.1) Hz
- effect on human enteric nerve cells when applied to the ganglia (5-HT1P receptor; 5-BOIP applied to ganglia, human submucous plexus): induces action potentials
- action potential (spike) frequency in presence of 5-HT1P receptor antagonist 5-HTP-DP (5-HT1P receptor; 5-BOIP during 20 min bath application of 10 μM 5-HTP-DP, median (10%/90%)): 0 (0/0.5) Hz
- action potential (spike) frequency after washing out the antagonist 5-HTP-DP (5-HT1P receptor; 5-BOIP freshly added after washout of 5-HTP-DP, median (10%/90%)): 1.0 (0.5/1.6) Hz
- effect on the "on contraction" in response to the EFS [1]: clearly reduced
- activity after storage [2]: retains activity

Structure (SMILES): Oc1ccc2[nH]cc(CCC3CCNCC3)c2c1 [5-OHIP, 5-hydroxyindalpine]
- effect on threshold pressure required to trigger the peristaltic reflex (mouse isolated colon): reduce the threshold pressure
- effect on peristalsis (mouse isolated colon; concentration dependent): accelerate peristalsis
- activity after storage [2]: would lose its activity
